From US12295997B2, “Prostate neoantigens and their uses” (Janssen Biotech, Inc., priority 2020, dated 2025)

B1: P19 (peptide, listed as Homo sapiens)
chain: WTPIPVLTRWPLPHPPPWRRATSCRMARSSPSATSGSSVRRRCSSLPSWVWNLAASTRPRSTPS

Tested on: CD8+ and CD4+ T cells (autologous CD3+ Pan-T cells isolated from human normal PBMCs)
Experiment: Exogenous autologous normal donor restimulation assay (15-mer overlapping peptide pools on CD1c+ dendritic cells, TNFα/IFNγ flow cytometry)
Assay type: cell-based
Conditions: 15-mer overlapping peptide pool; for Maximum Fold Change Over Background CD4+ cells / Maximum Fold Change Over Background CD8+ cells / Maximum Frequency of TNFα/IFNγ Double Positive CD4+ T cells / Maximum Frequency of TNFα/IFNγ Double Positive CD8+ T cells: Table 25; for Maximum Fold Change Over Background CD4+ cells: TNFα+IFNγ+ CD4+ T cells; for Maximum Fold Change Over Background CD4+ cells / Maximum Fold Change Over Background CD8+ cells: highest fold change over negative control across normal donors; for Maximum Fold Change Over Background CD8+ cells: TNFα+IFNγ+ CD8+ T cells; for Maximum Frequency of TNFα/IFNγ Double Positive CD4+ T cells / Maximum Frequency of TNFα/IFNγ Double Positive CD8+ T cells: highest frequency across normal donors
In short: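 Readout was intracellular TNFα/IFNγ flow cytometry on live CD3+ CD8+ and CD4+ cells after day-11 peptide restimulation. Stimulators were CD1c+ dendritic cells loaded with overlapping 15-mer peptide pools (2.5–10 μg/mL), irradiated, and cultured 12 days with autologous normal-donor Pan-T cells plus IL-15/IL-2. A response counted when ≥3-fold over DMSO control and at least 0.01%.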

[1] = Table 28, additional neoantigens, highest across normal donors

Molecule	Maximum Fold Change Over Background CD4+ cells	Maximum Fold Change Over Background CD8+ cells	Maximum Frequency of TNFα/IFNγ Double Positive CD4+ T cells	Maximum Frequency of TNFα/IFNγ Double Positive CD8+ T cells	Max. Fold Change over background CD4+ TNFαINFγ double positive DP [1]	Max. Fold Change over background CD8+ TNFαINFγ double positive DP [1]	Max. Frequency of CD4+ TNFαINFγ DP [1]	Max. Frequency of CD8+ TNFαINFγ DP [1]
YEAGMTLGEKFRVGNCKHLKMTRP (listed as Homo sapiens) [Neoantigen P82]	4.44	2.92	0.17	0.09				
YEAGMTLGGKILFFLFLLLPLSPFSLIF (listed as Homo sapiens) [Neoantigen P87]	7.86	9.20	0.110	0.460				
SLYHREKQLIAMDSAI (listed as Homo sapiens) [Neoantigen P22]	18.16	1.56	0.075	0.025				
B1					6.67	4.76	0.16	0.15
